Consider two compounds from patent US11554124B2, “Hematopoiesis-enhancing agent” (priority 2018, dated 2023).

For this assay, the system named is bone marrow erythroblasts. The assay can be described thus: Flow cytometry of bone marrow cells / erythroblast subsets (Ter119/CD71 double staining) of treated mice. It counts as in vivo, mouse. How it is done:
Wild-type mice with a genetic background of C57BL/6J were purchased from Charles River Laboratories, Inc. Mice at 8 to 14 weeks of age were used for analysis. For CLEU treatment (50 mg/body), a solution of cycloleucine (CLEU) was prepared by diluting cycloleucine (CLEU) (Sigma) in PBS (50 mg/ml), and 1 ml of the CLEU solution was administered intraperitoneally. For AKBA treatment (2 mg/body), 2 mg AKBA (Enzo Life Sciences)/20% DMSO/1 mL PBS solution was administered intraperitoneally. Vehicle without AKBA was used as a control. For measuring complete blood count of peripheral blood, peripheral blood was collected from facial veins and counted by use of an automated animal blood cell counter (microsemi LC-662). All of the experiments conducted in this study were approved by the Animal Experiment Committee of the Environmental Safety Committee of Tohoku University.
BM cells and spleen cells were harvested in a conventional manner. Cells were stained with combinations of antibodies specific to erythroblasts and mature cells, to thereby identify them. The cells were visualized with antibody and streptavidin-peridinin chlorophyll protein-cyanin 5.5. The antibodies used in this study were as follows: anti-CD3e (145-2C11), anti-CD4 (GK1.5 or RM4.5), anti-CD8a (53-6.7), anti-Gr-1 (RB6-8C5), anti-B220 (RA3-6B2), anti-Ter-119 (TER-119), anti-CD71 (R17217 or C2). Cells were stained with […] (Sigma), and dead cells were excluded from analysis. Flow cytometric analysis and cell sorting were performed according to the manufacturer's protocol using FACS AriaII (BD), and then the obtained data were analyzed using FlowJo software (TreeStar).
Additionally, MAT inhibitor PF9366 (PF) was administered to mice and the effect thereof was investigated. Vehicle (DMSO) (control (Ctrl)) or 10 mM PF9366 (prepared at a concentration of 40 μl/40 ml water) was provided in a drinking bottle (0 h). In addition, 80 μl of vehicle (DMSO) or 80 μl of 10 mM PF9366 dissolved in 1 ml PBS was also administered intraperitoneally at 0 h and 24 h. Analysis was carried out at Day 2 (48 h).
MAT inhibitor 3-acetyl-11-keto-β-boswellic acid (AKBA; 2 mg/body) was intraperitoneally administered to mice at 0 and 24 hours, and analyzed after 48 hours.

Where [1] appears, read: PF9366 in drinking water plus i.p. at 0 h and 24 h, Day 2 (48 h), vs DMSO.

For the compound `CC(=O)O[C@@H]1CC[C@@]2(C)[C@@H](CC[C@]3(C)[C@@H]2C(=O)C=C2[C@@H]4[C@@H](C)[C@H](C)CC[C@]4(C)CC[C@]23C)[C@@]1(C)C(=O)O` [AKBA, 3-acetyl-11-keto-β-boswellic acid], for the setting “AKBA 2 mg/body i.p. at 0 and 24 hours, analyzed after 48 hours, Ter119/CD71 double staining, vs vehicle”, the maturation of erythroblasts entry is recorded as “significantly up-regulated”.

Regarding `CN(C)CCc1nnc2cc(-c3ccccc3)c3cc(Cl)ccc3n12` [PF9366, 2-(7-chloro-5-phenyl-[1,2,4]triazolo[4,3-a]quinolin-1-yl)-N,N-dimethylethan-1-amine], where the note is “PF9366 10 mM: 40 μl/40 ml drinking water plus 80 μl in 1 ml PBS i.p. at 0 h and 24 h, Day 2 (48 h), vs DMSO”, the “subset from which the increase of erythroblast was initiated” value is listed as “initiated from subset III”. In addition, under setting [1], the erythroblast maturation index result was “significant difference” and the maturation of erythroblasts entry is listed as “significantly up-regulated”.
